Assay results reported in article PMC12498411, “Antidepressant-like Properties of a Selenium-Containing Pyridinium Salt Explored through In Vitro, In Vivo, and In Silico Approaches” (ACS Chemical Neuroscience, 2025).
Read-outs that look alike come from different tables or passages of the source.

Experiments:
MAO-B = target: T1, MAO-B (Mus musculus, UniProt Q8BW75); experiment: Cerebral MAO-B activity, mitochondria-enriched mouse brain fraction (kynuramine, fluorimetric); format: biochemical
T1 construct: Mitochondria-enriched brain preparations were obtained in accordance with established methodology outlined in literature; from tissue; host or cells: mouse brain, mitochondria-enriched fraction
T1 sequence (Q8BW75 1-520): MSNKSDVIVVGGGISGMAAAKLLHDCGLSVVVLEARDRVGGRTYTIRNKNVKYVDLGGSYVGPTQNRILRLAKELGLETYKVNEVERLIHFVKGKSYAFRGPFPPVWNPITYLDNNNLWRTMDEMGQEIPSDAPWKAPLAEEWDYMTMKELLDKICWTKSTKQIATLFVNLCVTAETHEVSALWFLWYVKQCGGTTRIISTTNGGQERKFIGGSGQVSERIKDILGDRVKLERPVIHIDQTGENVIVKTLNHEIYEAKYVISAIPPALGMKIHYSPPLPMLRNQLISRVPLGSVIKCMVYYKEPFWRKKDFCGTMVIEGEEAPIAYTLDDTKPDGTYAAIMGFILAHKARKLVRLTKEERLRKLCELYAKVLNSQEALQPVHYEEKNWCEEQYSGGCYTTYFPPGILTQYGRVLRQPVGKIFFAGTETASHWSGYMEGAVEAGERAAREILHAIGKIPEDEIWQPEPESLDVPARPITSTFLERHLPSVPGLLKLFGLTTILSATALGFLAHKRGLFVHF
Procedure: Mitochondria-enriched brain preparations were obtained in accordance with established methodology outlined in literature. The homogenate was prepared using the mouse brain tissue and a homogenization buffer (Na2PO4/KH2PO4/sucrose) at a ratio of 1:4 (w/v). The homogenate was centrifuged at 900g at 4 °C for 5 min. The resulting supernatant was separated and subjected to centrifugation at 12,500g for 15 min. The resulting pellet was resuspended in the homogenization buffer and subjected to a further round of centrifugation under identical conditions. Finally, the mitochondrial pellet obtained was reconstituted in an assay buffer solution (Na2PO4/KH2PO4/KCl). Protein concentration was estimated using the Bradford method and standardized as 1 mg/mL for the experiments.
MAO activity was assessed following the method outlined by Krajl, with some modifications by Matsumoto. Briefly, a 100 μL aliquot of the mitochondria-rich fraction was incubated at 37 °C for 5 min with specific MAO inhibitors: clorgyline (250 nM, a MAO-A inhibitor), or pargyline (250 nM, a MAO-B inhibitor). Then, 10 μL of each compound was introduced at varying concentrations (25–200 μM). Water (10 μL) was used in the control tubes. Afterward, the substrate, 20 μL of kynuramine dihydrobromide, was added to achieve a final concentration of 90 μM for MAO-A and 60 μM for MAO-B. The samples were incubated at 37 °C for 30 min. The reaction was halted by the addition of 300 μL of 10% trichloroacetic acid (TCA). After centrifuging at 16,000g for 15 min, an aliquot of 800 μL of the supernatant was mixed with 1 mL of 1 M sodium hydroxide (NaOH). The samples were measured using a fluorimeter with excitation at 315 nm and emission at 380 nm.

protein carbonylation = experiment: Protein carbonylation assay, SNP-induced, brain homogenate; format: biochemical, mouse; conditions: for IC50: mouse brain homogenate, SNP-induced, 25–200 μM; for Concentrations effective in reducing SNP-induced protein carbonylation: tested 25–200 μM
Procedure: Brains from mice of both sexes were used for in vitro assays, each performed in duplicate across three independent experiments (n = 3), conducted on different days.
The evaluation of protein carbonylation was performed according to a previously established protocol, using freshly prepared brain homogenate diluted at a 1:8 ratio in Tris-HCl buffer. Test compounds (10 μL), ranging in concentrations from 25 to 200 μM, were individually introduced into separate test tubes. Trolox (100 μM) served as the standard antioxidant. The diluted brain homogenate (940 μL) was then added to all tubes, followed by SNP (1 mM) as the inducing oxidative agent (50 μL). The tubes were promptly incubated at 37 °C for 2 h. Following incubation, 2 M HCl was added to blank tubes (200 μL), while 10 mM 2,4-dinitrophenyl-hydrazine (DNPH) solution was added to test tubes (200 μL). The mixture was incubated for 1 h in darkness at room temperature, with intermittent stirring every 15 min to facilitate the color reaction. Subsequently, 500 μL of denaturation buffer, 1.5 mL of ethanol, and 1.5 mL of hexane were added to all tubes, which were then vigorously shaken for 40 s. The tubes were then centrifuged at 900g for 15 min, and the supernatant was carefully decanted. The resulting pellet was washed twice with 1 mL of ethanol/ethyl acetate solution (1:1). After allowing the pellet to dry air for 2 min, it was resuspended in 1 mL of denaturation buffer and subjected to spectrophotometric analysis at 370 nm. The findings were quantified as nmol carbonyl per gram of tissue.

female Swiss mice = experiment: Acute oral toxicity, OECD Protocol 423 Acute Toxic Class Method; format: in vivo, mouse; conditions: for Food intake vs control: 50 mg/kg or 300 mg/kg; for Food intake vs control / Physical signs / Animal mortality: 14 days; for Plasma ALT activity / Plasma urea levels / Physical signs / Animal mortality: 50 and 300 mg/kg; for Physical signs / Animal mortality: gavage, female mice; for Animal mortality: single dose
Procedure: The evaluation of the acute toxicity of compounds 3A and 3B via oral administration was conducted in female Swiss mice, following the guidelines outlines in Protocol 423–OECD. The acute oral toxicity study of compound 3C was previously conducted by our research group, showing low toxicity and therefore was not evaluated here.
The animals were divided into 3 experimental groups (n = 6 mice/group) for each dosage testing: (I) Control, (II) Compound 3A, and (III) Compound 3B. Both compounds (3A and 3B) were administered at a single dose of 50 or 300 mg/kg via gavage, while control animals received water (vehicle). This high dose (300 mg/kg) was fractionated into three oral administrations of 100 mg/kg at a volume of 10 mL/kg with an interval of 30 min each. Over a period of 14 days, water and food consumption were monitored. In addition, changes in body weight and behavioral parameters such as lethargy, piloerection, and diarrhea were observed. Following this evaluation period, locomotion and exploration of the animals were assessed using the OFT. Subsequently, the animals were euthanized by an overdose of isoflurane, and blood, brain, liver, and kidney samples were collected for ex vivo analysis.
Blood plasma was used to assess liver and kidney function markers by quantifying the activity of AST and ALT, as well as urea levels, using commercially available kits (LABTEST; BIOCLIN). The brain, liver and kidneys were employed to investigate potential oxidative damage to lipids as a toxicity parameter utilizing the TBARS technique.
The aim of this behavioral test is to assess the locomotion and exploration behavior of the animals using an open field apparatus measuring 30 cm × 30 cm × 15 cm, constructed from plywood with a floor divided into nine quadrants, facilitating free movement for the animals. During the OFT, the animals were positioned in the center of the apparatus and subjected to a 5 min testing period, following the protocol outlined in literature. The number of quadrant crossings and rearings was recorded and quantified during testing phase.

SMILES	IC50 (MAO-B) [µM]	IC50 (protein carbonylation) [µM]	Concentrations effective in reducing SNP-induced protein carbonylation (protein carbonylation)	Body weight at the last measurement (last day) vs control (female Swiss mice; 50 mg/kg)	Plasma AST activity (female Swiss mice; 50 mg/kg)	Water consumption vs control (female Swiss mice; 50 mg/kg)	Food intake vs control (female Swiss mice)	Water consumption vs control (female Swiss mice; 300 mg/kg)	Plasma ALT activity (female Swiss mice)	Plasma urea levels (female Swiss mice)	Physical signs (female Swiss mice)	Animal mortality (female Swiss mice)	IC50 (MAO-B; mouse brain mitochondria-rich fraction, 25–200 μM, kynuramine 60 μM, read-out: IC50 for MAO-B) [µM]	Concentrations with significant inhibition of MAO-B activity (MAO-B; tested 25–200 μM, Dunnett vs control) [µM]	Ex vivo lipid peroxidation (TBARS) in liver (female Swiss mice; 50 mg/kg)	Ex vivo lipid peroxidation (TBARS) in liver (female Swiss mice; 300 mg/kg)	Plasma AST activity (female Swiss mice; 300 mg/kg)
O=C(C[n+]1ccccc1C[Se]c1ccccc1)c1ccccc1.[Br-] [Compound 3A, 1-(2-oxo-2-phenylethyl)-2-((phenylselanyl)methyl)pyridin-1-ium bromide]	129	130	all concentrations	reduction in body weight	did not affect AST activity	decreased	ate similar to the control group	no significant difference	remained unchanged	remained similar	did not indicate any observable changes	no instances of animal mortality					
Cc1ccc(C(=O)C[n+]2ccccc2C[Se]c2ccccc2)cc1 [Compound 3B, 1-(2-oxo-2-(p-tolyl)ethyl)-2-((phenylselanyl)methyl)pyridin-1-ium bromide]		230	200 µM	did not differ significantly	did not affect AST activity		ate similar to the control group	no significant difference	remained unchanged	remained similar	did not indicate any observable changes	no instances of animal mortality	91.1	≥ 50	an increase in damage was observed	not evident at the higher dose	an increase was observed
